Experimental data as given in paper PMC8476002, “Bergamottin a CYP3A inhibitor found in grapefruit juice inhibits prostate cancer cell growth by downregulating androgen receptor signaling and promoting G0/G1 cell cycle block and apoptosis” (PLoS ONE, 2021).

Assays:
[1] = system: MDAPCa2b cells; assay: MTT growth assay, MDAPCa2b; type: cell-based; details: Homo sapiens, MDA-PCa-2b
Procedure: Growth of the cells was measured using a MTT assay. Cells were plated (2000 cells/ 96 well or 13,000 cells/ 24 well) for 48 hours then treated with bergamottin for 4 days (96 hours) and then incubated with MTT (3-(4,5-Dimethylthiazol- 2-yl)-2,5-Diphenyltetrazolium bromide) (4 mg/ml) for 2 h. at 37°C. DMSO (vehicle control for bergamottin) levels were compensated in each bergamottin treatment group. Cells were centrifuged at 2000 g for 10 min and the supernatant was discarded. The cell pellet was dissolved in 100/500 μl of DMSO depending on the well size. A plate reader was used to read the absorption at 540 nm. Experiments were performed in octuplet/quadruplet and repeated at least three times.

[2] = system: MDAPCa2b cells; assay: Clonogenic assay, MDAPCa2b; type: cell-based, human; details: 5μM and 10μM, 3 weeks
Procedure: For clonogenic assay, cells were plated in 6 well plates (10,000 cells) for 48 h and then treated with indicated amounts of bergamottin and vehicle control (DMSO). After 3 weeks, the colonies were fixed, stained (0.75% crystal violet, 50% ethanol and 1.75% formaldehyde) and counted. The assay was repeated three times.

[3] = system: AR nuclear localization in MDAPCa2b cells; assay: Confocal microscopy of AR nuclear localization, MDAPCa2b; type: cell-based, human; details: bergamottin 10μM, versus DMSO
Procedure: Cells were seeded into 35 mm Glass bottom dish (Cellvis catalog# D35C4-20-1.5-N) in complete media; media was changed to CSSM prior to DHT treatment. The cells were fixed in 4% paraformaldehyde for 20 minutes and permeabilized using permeabilizing buffer (0.2% Tween 20 in PBS) for 5 minutes. Cells were blocked using 10% goat serum diluted in permeabilizing buffer with 1% BSA for 15 minutes. Primary antibodies were diluted at 1:100 in staining buffer (1% BSA in PBS) and incubated for 2 hours at room temperature. Cells were washed three times (5 minutes each) in PBS. Secondary antibodies, TRITC-conjugated Donkey Anti-rabbit (711-025-152) was from Jackson immuno research, West Grove, PA was diluted at 1:100 in staining buffer and incubated for 60 minutes at room temperature. Cells were washed three times (5 minutes) in PBS and stained with 1 μg/mL DAPI (4’, 6-diamidino-2-phenylindole) in PBS for 5 minutes at room temperature. The cells were stored in PBS at 4°C until imaging was completed.
Cells were imaged using confocal laser scanning microscopy on a Nikon A1R using a galvano scanner and a 60× Apo-TIRF oil immersion objective. NIS Elements software form Nikon was used for recording the data.

[4] = system: cell cycle regulating proteins in MDAPCa2b cells; assay: Western blot of cell cycle regulating proteins, MDAPCa2b; type: cell-based, human; details: for CDK2, normalized fold change after GAPDH calibration / CDK4, normalized fold change after GAPDH calibration / CDK6, normalized fold change after GAPDH calibration / Cyclin A, normalized fold change after GAPDH calibration / Cyclin B1, normalized fold change after GAPDH calibration / Cyclin D1, normalized fold change after GAPDH calibration / Cyclin D3, normalized fold change after GAPDH calibration / Cyclin E, normalized fold change after GAPDH calibration / Myt 1, normalized fold change after GAPDH calibration / P-Wee1, normalized fold change after GAPDH calibration / P-cdc2, normalized fold change after GAPDH calibration / P-histone H3, normalized fold change after GAPDH calibration / p21, normalized fold change after GAPDH calibration / p27, normalized fold change after GAPDH calibration: 48 hrs., 0 μM = 100
Procedure: Cells were plated at 25–30% confluence when maintained in complete media. When the cells required DHT tretment and media replacement to charcoal stripped serum media (CSSM) they were plated at 35–40% confluence. Bergamottin is dissolved in DMSO (vehicle control) and the amount of DMSO at each treatment group was kept constant. After the completion of the treatment cells were washed in phosphate buffer (PBS) containing 2mMEDTA and 2mM EGTA and lysed in RIPA buffer (50 mM TRIS, 150 mM NaCl, 1% NP40, 0.5% sodium deoxycholate, 0.1% SDS, 2mM EDTA, 2mM EGTA) supplemented with protease and phosphatase inhibitors for total protein isolation. Protein estimation was performed using micro BCA assay and equal protein amponts were loaded on SDS-PAGE gels for western analysis. GAPDH was used as an internal control for total protein. Infrared fluorescent-labeled secondary antibodies were used for detection using Odyssey CLx. The bands were quantified using Odyssey software, which calculates pixel density and automatically takes an area adjacent to each band for background corrections. […]

[5] = system: PARP cleavage in LNCaP cells; assay: Western blot of PARP cleavage, LNCaP; type: cell-based, human; details: 5 and 10 μM for 96 hrs. and 20 μM for 48 hrs.
Procedure: (§1) Cells were plated at 25–30% confluence when maintained in complete media. When the cells required DHT tretment and media replacement to charcoal stripped serum media (CSSM) they were plated at 35–40% confluence. Bergamottin is dissolved in DMSO (vehicle control) and the amount of DMSO at each treatment group was kept constant. After the completion of the treatment cells were washed in phosphate buffer (PBS) containing 2mMEDTA and 2mM EGTA and lysed in RIPA buffer (50 mM TRIS, 150 mM NaCl, 1% NP40, 0.5% sodium deoxycholate, 0.1% SDS, 2mM EDTA, 2mM EGTA) supplemented with protease and phosphatase inhibitors for total protein isolation. Protein estimation was performed using micro BCA assay and equal protein amponts were loaded on SDS-PAGE gels for western analysis. GAPDH was used as an internal control for total protein. Infrared fluorescent-labeled secondary antibodies were used for detection using Odyssey CLx. The bands were quantified using Odyssey software, which calculates pixel density and automatically takes an area adjacent to each band for background corrections.
(§2) Cells were plated in complete media without antibiotics on poly D-lysine-coated plates (80,000 cells per 6 well). […]

[6] = system: PARP cleavage in MDAPCa2b cells; assay: Western blot of PARP cleavage, MDAPCa2b; type: cell-based, human; details: 5 and 10 μM for 96 hrs. and 20 μM for 48 hrs.
Procedure: as §1, §2

## CC(C)=CCC/C(C)=C/COc1c2ccoc2cc2oc(=O)ccc12 [bergamottin]
[1]; 10μM
  inhibition at 10 µM: 60%
[1]; treatment 96 hours (methods) / 120 hours (Fig 1 legend), read-out: bergamottin concentration giving 50% growth reduction
  IC50: 4 µM
[2]
  number of colonies: significantly reduced the number of colonies
[3]
  active AR migration to the nucleus with DHT induction (confocal): significantly reduced
[4]; Bergamottin 20 μM
  CDK2, normalized fold change after GAPDH calibration: 63
  CDK4, normalized fold change after GAPDH calibration: 90
  CDK6, normalized fold change after GAPDH calibration: 108
  Cyclin A, normalized fold change after GAPDH calibration: 86
  Cyclin B1, normalized fold change after GAPDH calibration: 52
  Cyclin D1, normalized fold change after GAPDH calibration: 106
  Cyclin D3, normalized fold change after GAPDH calibration: 55
  Cyclin E, normalized fold change after GAPDH calibration: 120
  Myt 1, normalized fold change after GAPDH calibration: 259
  P-Wee1, normalized fold change after GAPDH calibration: 80
  P-cdc2, normalized fold change after GAPDH calibration: 14
  P-histone H3, normalized fold change after GAPDH calibration: 130
  p21, normalized fold change after GAPDH calibration: 139
  p27, normalized fold change after GAPDH calibration: 158
[4]; Bergamottin 30 μM
  CDK2, normalized fold change after GAPDH calibration: 77
  CDK4, normalized fold change after GAPDH calibration: 81
  CDK6, normalized fold change after GAPDH calibration: 98
  Cyclin A, normalized fold change after GAPDH calibration: 58
  Cyclin B1, normalized fold change after GAPDH calibration: 42
  Cyclin D1, normalized fold change after GAPDH calibration: 110
  Cyclin D3, normalized fold change after GAPDH calibration: 49
  Cyclin E, normalized fold change after GAPDH calibration: 87
  Myt 1, normalized fold change after GAPDH calibration: 451
  P-Wee1, normalized fold change after GAPDH calibration: 87
  P-cdc2, normalized fold change after GAPDH calibration: 15
  P-histone H3, normalized fold change after GAPDH calibration: 152
  p21, normalized fold change after GAPDH calibration: 126
  p27, normalized fold change after GAPDH calibration: 143
[4]; low dose 5 and 10 μM, 96 hrs.
  CDK4 level (western blot): did not observe any significant change
  CDK6 level (western blot): did not observe any significant change
  cdc-2 phosphorylation (western blot): Decreased cdc-2 phosphorylation
  cyclin B1 level (western blot): lower
  cyclin D3 level (western blot): lower
[5]
  PARP cleavage: showed apoptosis (cleaved PARP)
[6]
  PARP cleavage: showed apoptosis (cleaved PARP)
